Experimental findings from ChEMBL document CHEMBL1201862, “PubChem BioAssay data set” (2004) are described below.

Usually AC50 stands for the concentration at which the activity in the assay is half-maximal. A word on the EC50: it is the midpoint of the concentration-response curve. The IC50 is the concentration that gives 50% inhibition.

For series [1], the target named is T1, Cytochrome P450 1A2 (Homo sapiens, UniProt P05177).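 Note: PubChem cytochrome P450 panel assay, CYP1A2 panel member.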
T1 sequence (P05177 whole entry): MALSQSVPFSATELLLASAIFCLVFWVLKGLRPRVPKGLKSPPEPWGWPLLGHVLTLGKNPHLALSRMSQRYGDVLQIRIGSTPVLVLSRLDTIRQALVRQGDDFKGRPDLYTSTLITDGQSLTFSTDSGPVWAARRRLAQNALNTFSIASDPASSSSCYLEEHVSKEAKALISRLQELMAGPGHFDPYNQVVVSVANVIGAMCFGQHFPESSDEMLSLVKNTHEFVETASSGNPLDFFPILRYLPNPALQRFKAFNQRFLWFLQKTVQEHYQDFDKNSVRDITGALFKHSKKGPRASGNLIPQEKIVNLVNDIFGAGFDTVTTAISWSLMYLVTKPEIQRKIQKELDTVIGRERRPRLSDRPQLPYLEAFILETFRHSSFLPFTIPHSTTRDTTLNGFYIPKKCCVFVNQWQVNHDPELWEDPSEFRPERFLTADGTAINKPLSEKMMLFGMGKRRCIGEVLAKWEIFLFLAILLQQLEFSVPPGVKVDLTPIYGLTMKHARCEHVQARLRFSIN

In series [2] the target is Voltage-gated inwardly rectifying potassium channel KCNH2 (Homo sapiens, UniProt Q12809). The conditions noted are these: Potency.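 Note: confirmatory quantitative high-throughput screen measuring inhibition of hERG channel activity.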
The target of series [3] is T2, CAAX prenyl protease 2 (Saccharomyces cerevisiae S288c, UniProt Q03530).
T2 sequence (Q03530 whole entry): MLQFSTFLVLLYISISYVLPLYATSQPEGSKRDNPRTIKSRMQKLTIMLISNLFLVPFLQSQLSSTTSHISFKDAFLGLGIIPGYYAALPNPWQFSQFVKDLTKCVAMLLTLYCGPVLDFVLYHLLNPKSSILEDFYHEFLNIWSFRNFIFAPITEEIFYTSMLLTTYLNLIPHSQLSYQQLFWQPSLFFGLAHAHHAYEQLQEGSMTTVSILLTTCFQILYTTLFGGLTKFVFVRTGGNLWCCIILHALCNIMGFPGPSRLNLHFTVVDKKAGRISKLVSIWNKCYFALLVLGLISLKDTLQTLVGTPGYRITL
Type of series: biochemical.

Series [4] deals with T3, CAAX prenyl protease 2 (Homo sapiens, UniProt Q9Y256).
T3 sequence (Q9Y256 whole entry): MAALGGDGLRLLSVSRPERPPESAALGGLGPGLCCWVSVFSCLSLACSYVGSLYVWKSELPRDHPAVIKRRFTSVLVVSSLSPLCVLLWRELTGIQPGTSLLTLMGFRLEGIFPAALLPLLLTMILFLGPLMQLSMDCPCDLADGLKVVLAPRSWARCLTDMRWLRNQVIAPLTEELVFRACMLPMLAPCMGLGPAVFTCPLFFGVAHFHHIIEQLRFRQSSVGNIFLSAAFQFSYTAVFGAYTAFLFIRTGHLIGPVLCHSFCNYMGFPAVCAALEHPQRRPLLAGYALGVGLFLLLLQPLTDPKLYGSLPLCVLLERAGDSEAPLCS
As to the kind of experiment: human Rce1 protease inhibitors, dose response, biochemical, yeast membranes, quenched-peptide fluorescence, cherry-pick (AID 588849).

Series [5] concerns the target Trypsin (Sus scrofa, UniProt P00761). As to the kind of experiment: porcine trypsin inhibitors, dose response, selectivity assay for Rce1 protease inhibitor project, biochemical, quenched peptide fluorescence, cherry-pick (AID 488789).
In series [6] the target is Mu-type opioid receptor (Homo sapiens, UniProt P35372). The format is functional, cell-based.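 Note: U2OS cells with beta-arrestin recruitment to OPRM1 by beta-gal complementation.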
The target in series [7] is 5-hydroxytryptamine receptor 2A (Mus musculus, UniProt P35363). The format is functional, cell-based.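 Note: CHO-K1 cells with tagged receptor and beta-arrestin; agonist potency measured as compound-induced activation of the receptor.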
In series [8] the test system is HEK293. Briefly: cells. Type of series: functional, cell-based. The note with it: Homo sapiens.
The target of series [9] is T4, Nuclear receptor subfamily 0 group B member 1 (Homo sapiens, UniProt P51843).
T4 sequence (P51843 whole entry): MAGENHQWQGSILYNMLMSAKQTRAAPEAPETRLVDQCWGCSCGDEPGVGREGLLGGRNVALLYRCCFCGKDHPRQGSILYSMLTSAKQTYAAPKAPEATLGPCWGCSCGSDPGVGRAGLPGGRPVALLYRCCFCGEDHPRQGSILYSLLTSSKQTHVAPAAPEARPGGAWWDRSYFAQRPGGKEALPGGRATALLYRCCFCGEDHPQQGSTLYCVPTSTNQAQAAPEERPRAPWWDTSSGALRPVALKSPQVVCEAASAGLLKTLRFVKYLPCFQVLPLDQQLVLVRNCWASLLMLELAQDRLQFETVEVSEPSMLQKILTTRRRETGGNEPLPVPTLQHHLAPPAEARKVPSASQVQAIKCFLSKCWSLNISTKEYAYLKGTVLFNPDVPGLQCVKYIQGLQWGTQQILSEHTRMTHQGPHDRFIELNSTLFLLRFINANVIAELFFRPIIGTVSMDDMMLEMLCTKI
As to the kind of experiment: Luminescence-based cell-based high throughput dose response assay for inhibitors of the orphan nuclear receptor subfamily 0, group B, member 1 (DAX1; NR0B1). [Related pubchem assays (depositor defined):AID504766, AID504790]. Type of series: functional.

Series [10] addresses T5, Sentrin-specific protease 7 (Homo sapiens, UniProt Q9BQF6).
T5 sequence (Q9BQF6 whole entry): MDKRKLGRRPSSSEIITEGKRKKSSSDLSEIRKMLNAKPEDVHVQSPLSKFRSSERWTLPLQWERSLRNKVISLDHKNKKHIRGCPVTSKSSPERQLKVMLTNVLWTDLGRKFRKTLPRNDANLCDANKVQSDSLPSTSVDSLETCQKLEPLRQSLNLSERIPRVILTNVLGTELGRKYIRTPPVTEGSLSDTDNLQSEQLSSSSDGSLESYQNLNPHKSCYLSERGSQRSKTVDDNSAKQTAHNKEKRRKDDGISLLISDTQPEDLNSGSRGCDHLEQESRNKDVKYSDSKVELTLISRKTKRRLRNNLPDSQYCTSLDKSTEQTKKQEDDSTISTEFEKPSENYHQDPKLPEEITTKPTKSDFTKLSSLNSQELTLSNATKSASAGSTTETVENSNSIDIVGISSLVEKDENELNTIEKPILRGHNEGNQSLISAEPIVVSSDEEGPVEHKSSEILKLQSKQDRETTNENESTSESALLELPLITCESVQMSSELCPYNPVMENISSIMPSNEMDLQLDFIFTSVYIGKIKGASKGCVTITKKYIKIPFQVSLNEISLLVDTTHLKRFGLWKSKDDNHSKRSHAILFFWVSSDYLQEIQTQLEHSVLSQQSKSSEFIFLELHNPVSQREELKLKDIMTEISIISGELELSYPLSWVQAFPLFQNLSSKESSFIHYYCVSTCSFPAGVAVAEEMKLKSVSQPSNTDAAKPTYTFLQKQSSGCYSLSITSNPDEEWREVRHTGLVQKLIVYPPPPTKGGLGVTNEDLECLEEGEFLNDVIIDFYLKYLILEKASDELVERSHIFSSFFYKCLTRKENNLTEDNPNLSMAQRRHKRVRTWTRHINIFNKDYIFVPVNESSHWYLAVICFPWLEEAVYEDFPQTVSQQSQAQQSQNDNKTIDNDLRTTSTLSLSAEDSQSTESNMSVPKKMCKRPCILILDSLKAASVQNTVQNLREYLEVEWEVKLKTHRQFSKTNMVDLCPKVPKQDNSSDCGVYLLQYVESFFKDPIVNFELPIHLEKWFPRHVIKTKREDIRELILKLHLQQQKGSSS
Type of series: functional.

Series [11] addresses T6, Sentrin-specific protease 6 (Homo sapiens, UniProt Q9GZR1).
T6 sequence (Q9GZR1 whole entry): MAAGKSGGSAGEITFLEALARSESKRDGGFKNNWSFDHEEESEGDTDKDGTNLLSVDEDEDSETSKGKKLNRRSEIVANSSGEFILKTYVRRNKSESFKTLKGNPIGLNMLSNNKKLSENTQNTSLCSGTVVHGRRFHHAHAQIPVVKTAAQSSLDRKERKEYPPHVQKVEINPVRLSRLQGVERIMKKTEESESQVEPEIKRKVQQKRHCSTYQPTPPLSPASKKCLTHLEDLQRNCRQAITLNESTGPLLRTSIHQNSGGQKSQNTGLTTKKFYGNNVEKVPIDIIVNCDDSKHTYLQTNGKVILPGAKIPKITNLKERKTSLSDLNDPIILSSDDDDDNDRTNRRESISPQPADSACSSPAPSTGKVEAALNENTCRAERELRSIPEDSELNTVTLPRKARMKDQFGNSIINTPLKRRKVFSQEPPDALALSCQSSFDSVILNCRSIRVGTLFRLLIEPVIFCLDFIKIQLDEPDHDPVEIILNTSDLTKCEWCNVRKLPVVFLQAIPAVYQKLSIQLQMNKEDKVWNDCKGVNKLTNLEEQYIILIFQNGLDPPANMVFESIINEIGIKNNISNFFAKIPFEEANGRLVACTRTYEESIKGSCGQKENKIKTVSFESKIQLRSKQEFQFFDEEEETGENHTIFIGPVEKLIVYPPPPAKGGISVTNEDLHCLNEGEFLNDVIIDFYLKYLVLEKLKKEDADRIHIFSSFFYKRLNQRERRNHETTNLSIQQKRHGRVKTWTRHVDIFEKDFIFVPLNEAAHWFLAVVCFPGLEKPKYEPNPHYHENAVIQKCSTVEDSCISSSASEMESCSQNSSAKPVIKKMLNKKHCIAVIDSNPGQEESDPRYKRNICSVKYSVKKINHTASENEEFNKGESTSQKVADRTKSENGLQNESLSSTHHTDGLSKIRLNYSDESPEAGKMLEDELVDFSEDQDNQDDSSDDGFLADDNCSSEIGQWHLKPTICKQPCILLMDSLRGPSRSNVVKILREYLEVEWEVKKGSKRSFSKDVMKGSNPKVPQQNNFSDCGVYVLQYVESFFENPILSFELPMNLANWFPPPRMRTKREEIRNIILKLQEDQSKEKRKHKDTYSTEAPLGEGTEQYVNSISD
Type of series: functional.

The target in series [12] is T7, Sentrin-specific protease 8 (Homo sapiens, UniProt Q96LD8).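 Note: luminescence read-out of SENP8 inhibition, dose-response confirmation following an ultra-high-throughput screen.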
T7 sequence (Q96LD8 whole entry): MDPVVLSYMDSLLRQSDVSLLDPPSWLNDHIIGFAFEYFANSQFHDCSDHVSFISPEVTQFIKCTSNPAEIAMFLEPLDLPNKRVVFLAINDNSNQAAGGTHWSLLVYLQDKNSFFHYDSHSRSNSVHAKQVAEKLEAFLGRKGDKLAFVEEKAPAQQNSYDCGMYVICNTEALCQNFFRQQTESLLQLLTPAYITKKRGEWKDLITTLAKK
The format is functional.

For series [13], the target named is T8, Caspase-3 (Homo sapiens, UniProt P42574).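 Note: Dose-response selectivity test against caspase-3 for candidate inhibitors of sentrin-specific proteases (SENPs).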
T8 sequence (P42574 whole entry): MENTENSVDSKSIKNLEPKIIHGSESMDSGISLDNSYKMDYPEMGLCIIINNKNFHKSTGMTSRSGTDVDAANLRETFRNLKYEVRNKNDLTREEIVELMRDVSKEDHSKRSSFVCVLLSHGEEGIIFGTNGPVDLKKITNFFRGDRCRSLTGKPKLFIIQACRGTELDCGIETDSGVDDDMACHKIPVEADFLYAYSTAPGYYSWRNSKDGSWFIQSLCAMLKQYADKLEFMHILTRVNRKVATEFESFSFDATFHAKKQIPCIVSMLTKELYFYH
The format is functional.

Series [14] deals with Cytochrome P450 2C19 (Homo sapiens, UniProt P33261). Briefly: Cytochrome panel assay with activity outcomes. Panel member name: p450-cyp2c19 Compounds with AC50 equal or less than 10 uM are considered active. Type of series: functional. The note with it: read-out: AC50.
Series [15] concerns the target Cytochrome P450 2D6 (Homo sapiens, UniProt P10635).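 Note: CYP2D6 member of a cytochrome P450 panel assay.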
Series [16] deals with Cytochrome P450 3A4 (Homo sapiens, UniProt P08684).

Molecules are shown by their SMILES. Where “and” joins values, the source holds several entries; their conditions need not be identical. Equal entries are not always repeated. Calls of active or inactive are those of the source.

Voltage-gated inwardly rectifying potassium channel KCNH2, sequence (Q12809 whole entry): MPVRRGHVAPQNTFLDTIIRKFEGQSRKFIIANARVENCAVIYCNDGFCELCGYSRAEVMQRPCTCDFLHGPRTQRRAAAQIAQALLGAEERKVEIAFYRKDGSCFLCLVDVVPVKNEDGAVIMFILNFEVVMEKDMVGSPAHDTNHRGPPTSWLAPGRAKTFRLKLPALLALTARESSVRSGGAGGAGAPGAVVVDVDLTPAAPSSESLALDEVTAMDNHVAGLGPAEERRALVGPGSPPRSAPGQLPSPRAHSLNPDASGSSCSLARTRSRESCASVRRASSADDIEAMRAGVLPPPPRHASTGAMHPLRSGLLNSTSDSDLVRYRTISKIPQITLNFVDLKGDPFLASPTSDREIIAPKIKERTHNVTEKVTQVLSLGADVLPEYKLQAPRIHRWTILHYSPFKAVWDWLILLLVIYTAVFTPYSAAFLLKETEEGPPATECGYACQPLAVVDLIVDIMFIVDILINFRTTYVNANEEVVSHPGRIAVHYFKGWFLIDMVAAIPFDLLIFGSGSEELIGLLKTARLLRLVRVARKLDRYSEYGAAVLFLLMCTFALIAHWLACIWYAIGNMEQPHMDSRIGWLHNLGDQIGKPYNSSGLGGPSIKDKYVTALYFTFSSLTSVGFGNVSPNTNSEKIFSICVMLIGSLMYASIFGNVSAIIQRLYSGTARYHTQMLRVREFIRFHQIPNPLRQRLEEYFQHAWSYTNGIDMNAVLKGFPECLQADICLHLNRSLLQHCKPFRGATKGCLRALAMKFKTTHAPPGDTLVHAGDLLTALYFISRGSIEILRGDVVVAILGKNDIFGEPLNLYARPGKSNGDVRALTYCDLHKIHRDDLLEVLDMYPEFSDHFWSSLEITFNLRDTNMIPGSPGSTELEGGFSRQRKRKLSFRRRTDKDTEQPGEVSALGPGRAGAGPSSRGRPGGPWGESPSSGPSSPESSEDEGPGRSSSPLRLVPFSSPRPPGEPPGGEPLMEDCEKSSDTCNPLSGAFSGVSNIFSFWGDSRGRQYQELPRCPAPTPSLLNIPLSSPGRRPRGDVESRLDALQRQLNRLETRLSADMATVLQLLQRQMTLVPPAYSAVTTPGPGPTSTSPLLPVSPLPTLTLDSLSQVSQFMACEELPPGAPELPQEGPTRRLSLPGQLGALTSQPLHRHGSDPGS
5-hydroxytryptamine receptor 2A, sequence (P35363 whole entry): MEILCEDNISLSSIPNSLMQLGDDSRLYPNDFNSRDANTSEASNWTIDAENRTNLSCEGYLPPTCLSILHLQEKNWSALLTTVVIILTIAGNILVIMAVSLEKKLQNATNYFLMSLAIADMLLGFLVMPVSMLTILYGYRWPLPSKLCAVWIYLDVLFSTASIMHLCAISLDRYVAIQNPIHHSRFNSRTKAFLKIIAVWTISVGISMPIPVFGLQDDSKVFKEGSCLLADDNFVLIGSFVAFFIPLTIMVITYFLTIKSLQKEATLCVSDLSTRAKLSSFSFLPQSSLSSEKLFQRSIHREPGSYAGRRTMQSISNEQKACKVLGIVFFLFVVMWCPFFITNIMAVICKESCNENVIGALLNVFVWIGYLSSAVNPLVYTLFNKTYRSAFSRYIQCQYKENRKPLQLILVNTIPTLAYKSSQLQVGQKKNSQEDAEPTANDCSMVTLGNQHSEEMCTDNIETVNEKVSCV
Cytochrome P450 3A4, sequence (P08684 whole entry): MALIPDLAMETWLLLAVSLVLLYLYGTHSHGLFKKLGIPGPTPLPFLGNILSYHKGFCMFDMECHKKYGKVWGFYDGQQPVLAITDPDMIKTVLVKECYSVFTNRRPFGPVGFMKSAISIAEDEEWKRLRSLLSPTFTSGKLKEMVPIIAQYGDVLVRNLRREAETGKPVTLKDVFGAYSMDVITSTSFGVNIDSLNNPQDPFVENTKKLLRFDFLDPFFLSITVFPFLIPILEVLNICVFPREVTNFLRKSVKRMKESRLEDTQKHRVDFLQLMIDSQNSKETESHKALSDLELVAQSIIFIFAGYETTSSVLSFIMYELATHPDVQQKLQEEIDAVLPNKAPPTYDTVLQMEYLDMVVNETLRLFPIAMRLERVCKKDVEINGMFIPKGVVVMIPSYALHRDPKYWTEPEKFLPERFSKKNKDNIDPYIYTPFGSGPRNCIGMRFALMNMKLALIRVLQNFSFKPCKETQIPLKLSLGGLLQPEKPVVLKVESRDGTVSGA
Mu-type opioid receptor, sequence (P35372 whole entry): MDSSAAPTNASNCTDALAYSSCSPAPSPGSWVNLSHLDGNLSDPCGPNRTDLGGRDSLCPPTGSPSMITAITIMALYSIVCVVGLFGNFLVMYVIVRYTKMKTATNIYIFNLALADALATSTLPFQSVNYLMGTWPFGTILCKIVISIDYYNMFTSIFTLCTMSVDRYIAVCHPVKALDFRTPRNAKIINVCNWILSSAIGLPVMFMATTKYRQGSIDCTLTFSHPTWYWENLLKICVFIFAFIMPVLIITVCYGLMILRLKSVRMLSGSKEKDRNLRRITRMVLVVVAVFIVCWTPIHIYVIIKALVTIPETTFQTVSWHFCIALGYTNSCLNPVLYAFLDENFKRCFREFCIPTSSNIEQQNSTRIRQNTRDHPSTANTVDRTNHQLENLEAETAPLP
Cytochrome P450 2C19, sequence (P33261 whole entry): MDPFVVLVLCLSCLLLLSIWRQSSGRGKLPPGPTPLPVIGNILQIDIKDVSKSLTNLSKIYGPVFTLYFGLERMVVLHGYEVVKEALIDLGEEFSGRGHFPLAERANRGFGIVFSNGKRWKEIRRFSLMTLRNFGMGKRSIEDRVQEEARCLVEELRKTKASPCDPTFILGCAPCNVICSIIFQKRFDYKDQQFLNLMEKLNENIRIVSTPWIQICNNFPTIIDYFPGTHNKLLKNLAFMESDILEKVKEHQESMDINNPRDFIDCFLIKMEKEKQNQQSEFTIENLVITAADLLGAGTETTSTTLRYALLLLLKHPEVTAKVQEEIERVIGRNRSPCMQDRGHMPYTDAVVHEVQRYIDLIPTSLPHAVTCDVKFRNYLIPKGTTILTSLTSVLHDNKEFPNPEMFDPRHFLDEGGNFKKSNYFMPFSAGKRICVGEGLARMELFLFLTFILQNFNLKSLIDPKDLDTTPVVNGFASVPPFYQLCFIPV
Trypsin, sequence (P00761 whole entry): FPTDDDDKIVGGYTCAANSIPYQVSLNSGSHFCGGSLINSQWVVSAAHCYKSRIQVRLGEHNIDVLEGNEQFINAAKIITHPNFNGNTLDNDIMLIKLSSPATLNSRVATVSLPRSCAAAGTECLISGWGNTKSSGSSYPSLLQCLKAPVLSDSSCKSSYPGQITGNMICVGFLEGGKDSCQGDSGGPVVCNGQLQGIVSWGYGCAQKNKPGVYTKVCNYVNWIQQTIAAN
Cytochrome P450 2D6, sequence (P10635 whole entry): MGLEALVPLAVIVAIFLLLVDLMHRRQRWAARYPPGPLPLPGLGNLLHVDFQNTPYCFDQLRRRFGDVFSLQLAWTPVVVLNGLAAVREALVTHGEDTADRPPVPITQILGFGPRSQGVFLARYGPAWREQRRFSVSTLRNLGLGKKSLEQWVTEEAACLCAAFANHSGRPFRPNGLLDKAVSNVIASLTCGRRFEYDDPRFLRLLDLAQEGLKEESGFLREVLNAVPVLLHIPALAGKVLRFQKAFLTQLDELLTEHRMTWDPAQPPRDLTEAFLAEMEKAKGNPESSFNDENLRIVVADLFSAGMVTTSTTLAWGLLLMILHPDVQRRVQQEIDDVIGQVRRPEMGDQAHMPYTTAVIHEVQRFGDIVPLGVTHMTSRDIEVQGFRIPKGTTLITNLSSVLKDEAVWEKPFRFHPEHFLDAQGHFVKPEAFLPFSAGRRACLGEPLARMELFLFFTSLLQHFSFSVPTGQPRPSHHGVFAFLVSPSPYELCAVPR

Turning to `O=C(Nc1cc(C(=O)Nc2ccc(S(=O)(=O)O)cc2S(=O)(=O)O)cc(C(=O)Nc2ccc(S(=O)(=O)O)cc2S(=O)(=O)O)c1)Nc1cc(C(=O)Nc2ccc(S(=O)(=O)O)cc2S(=O)(=O)O)cc(C(=O)Nc2ccc(S(=O)(=O)O)cc2S(=O)(=O)O)c1`, the AC50 in series [1] is 31.6 µM (inconclusive) and 39.8 µM (inconclusive); in series [2], 35.5 µM (inconclusive).
`CC1(C(=O)N(CC(=O)NC2CCCC2)Cc2ccco2)CC(=O)N=C2C=CC=CN21` (configuration not stated): the AC50 in [3] is 4.64 µM (active); in series [4], 3.19 µM (active); in series [5], 4.21 µM (active).
Regarding `CC1=NN=C(c2ccc(N)cc2)c2cc3c(cc2C1)OCO3`, the AC50 in series [2] was 35.5 µM (inconclusive). The values for the EC50 in series [6] and in series [7] were 92.5 µM (inactive) and 76.1 µM (inactive), respectively.
For `CCOC(=O)c1ccc2[nH]c3ccccc3c2c1`, the IC50 in series [8] and in [9] was > 67.5 µM (inactive) in each case.
On to `Cc1nc2cc(NC(=O)c3ccc(Br)s3)ccc2s1`, for which the IC50 in series [10] was 4.08 µM (active); in series [11], > 100 µM (inactive); in series [12], > 100 µM (inactive); in [13], 19.7 µM (active).
In the case of `CC1Cc2ccccc2N1C(=O)CSCC(=O)O` (configuration not stated), the AC50 in series [1] was 20 µM (inconclusive); in [14], 11.2 µM (inconclusive); in series [15], “inconclusive”.
With `C=CCOC(=O)C1=C(C)OC(N)=C(C#N)C1c1ccco1` (configuration not stated), the IC50 in series [8] and in series [9] was > 67.5 µM (inactive) each time.
Turning to `Cc1ccc(/N=C/c2c(O)oc3ccccc3c2=O)c(C)c1`, the IC50 was > 100 µM (inactive) in series [10], > 100 µM (inactive) in series [11], > 100 µM (inactive) in series [12] and 95 µM (active) in series [13].
Consider `Nc1ncnc2c1ncn2C1C=C(CO)C(O)C1O` (configuration not stated), for which the IC50 in series [8] was > 2.51 µM (active); in series [9], > 67.7 µM (inactive).
Consider `C[C@H](O)C(=O)C1=Nc2c(nc(N)[nH]c2=O)NC1` [SEPIAPTERIN], for which the AC50 in [2] is 28.2 µM (inconclusive); in series [16] it was 0.316 µM (inconclusive).
